Here are results for one molecule from patent publication US20250085201A1, “SUBSTITUTED QUADRUPOLAR FLUORESCENT DYES FOR LIVE CELL IMAGING” (Northwestern University, priority 2023, published 2025).

The nature of data set [1]: Absolute fluorescence quantum yield (integrating sphere). Type of data set: physicochemical. To be noted: in H2O. As to the method:
Fluorescent dyes were dissolved in the appropriate solvents to afford 1 mM solutions prior to spectroscopic analysis. A portion of 30 μL of a 1 mM solution was diluted by adding a selected solvent to a sample with a total volume of 3000 μL, affording a 1×10^−5 M solution. UV/Vis Absorption spectra were recorded in glass cuvettes on a UV-3600 Shimadzu spectrophotometer. Steady-state emission spectra were acquired in quartz cuvettes with optical path-lengths of 10 mm containing the solution being analyzed using a HORIBA Fluoromax4 spectrofluorometer, which was equipped with an integrating sphere for determining the absolute photoluminescence quantum yield.
Steady-state and time-resolved emission spectra for dyes 1-6, 7·2PF6 and 9·4PF6 were acquired using a HORIBA Fluorolog-3 spectrofluorometer, equipped with a time-correlated single photon counting (TCSPC) module (diode laser excitation at λ=375 nm) and an integrating sphere, which was used for absolute photo-luminescence quantum yield determinations. Picosecond time-resolved fluorescence measurements were recorded using a commercial direct-diode-pumped 100 kHz amplifier (Spirit 1040-HE, Spectra-Physics), producing a fundamental beam of 1040 nm (350 fs, 12 W) which was used to pump a non-collinear optical parametric amplifier (Spirit-NOPA, SpectraPhysics) capable of delivering tunable, high-repetition-rate pulses with pulse widths as short as sub-20 fs. Dyes 1-6, 7·2PF6 and 9·4PF6 were excited with 350 nm, 2 nJ laser pulses. Fluorescence was detected using a Hamamatsu C4780 Streakscope as previously described in the literature. Samples were prepared in 2-mm quartz cuvettes. All data were acquired in the single-photon-counting mode using the Hamamatsu HPD-TA software. The temporal resolution was approximately 2% of the sweep window. Single wavelength kinetic analysis was performed using a nonlinear least-squares fit to a sum of exponentials convoluted with an instrument response function. Visible and near-infrared femtosecond and nanosecond transient absorption (fsTA and nsTA, respectively) spectroscopies were performed following descriptions already recorded in the literature. The 330 nm, ˜100 fs pump pulses were generated at 1 μJ per pulse using a commercial collinear optical parametric amplifier (TOPAS-Prime, Light-Conversion, Ltd.); 414-nm pump pulses were obtained by second-harmonic generation of the 828 nm fundamental. The pump polarization was randomized using a commercial depolarizer (DPU-25-A, Thorlabs, Inc.) to eliminate any orientational dynamics resulting from the experiment. Spectra were collected on commercial spectrometers (customized Ultrafast Systems Helios and EOS spectrometers, for fsTA and nsTA, respectively) for each time window. All samples were stirred to avoid localized heating or degradation effects. The optical density was maintained at 0.6 for all samples.
Steady-state and time-resolved emission spectra for dyes 7·2PF6 and 9·4PF6 were acquired using a HORIBA Fluorolog-3 spectrofluorometer, equipped with a time-correlated single photon counting (TCSPC) module (diode laser excitation at =375 nm) and an integrating sphere, which was used for absolute photo-luminescence quantum yield determinations. Picosecond time-resolved fluorescence measurements were recorded using a commercial direct-diode-pumped 100 kHz amplifier (Spirit 1040-HE, Spectra-Physics), producing a fundamental beam of 1040 nm (350 fs, 12 W) which was used to pump a non-collinear optical parametric amplifier (Spirit-NOPA, SpectraPhysics) capable of delivering tunable, high-repetition-rate pulses with pulse widths as short as sub-20 fs. The samples 7·2PF6 and 9·4PF6 were excited with […], 2 nJ laser pulses. Fluorescence was detected using a Hamamatsu C4780 Streakscope as previously described in the literature.^71 Samples were prepared in 2-mm quartz cuvettes. All data were acquired in the single-photon-counting mode using the Hamamatsu HPD-TA software. […]

In data set [2] the test system is MCF-7 breast cancer cells. Kind of data set: Cell growth / cytotoxicity experiments (phase contrast imaging, cell number). Format: cell-based. To be noted: MCF-7 cells. The protocol: Small molecular dyes are known^86 to intercalate with the DNA on account of electrostatic and base-pair interactions. The presence of these interactions inhibits enzyme function, elevating the cytotoxicity in living cells. To test the cytotoxicity of dye 9·4Cl, (FIG. 6) a series of cell uptake and viability experiments using MCF-7 breast cancer cells were performed. […] Moreover, the cells were viable and treatments of up to 10 μM concentration are non-cytotoxic for up to 64 h post-treatment.
MCF-7 Cells were plated in a 96-well culture plate at a density of 0.01×10^6 cells per well in Dulbecco's modified eagle medium (DMEM) media with 10% fetal bovine serum (FBS) and 1% Penicillin-Streptomycin. Cells were cultured for 24 h then treated with the compounds at a range of concentrations from 0.1-50 μM. Upon treatment, cells were placed in a BioTek LionheartFX system, where they were imaged at 4× magnification every 3 h for 72 h under standard culture conditions (37° C., 5% CO2). Phase contrast images were processed and analyzed with BioTek Gen5 analysis software to identify cell number at each time point during the culture period.
MCF-7 Breast cancer cells were grown in standard Dulbecco's modified eagle medium (DMEM), which was supplemented with 10% Fetal Bovine Serum (FBS) and 1% Penicillin-Streptomycin (Corning). Cells were seeded into an 8-well imaging coverglass chamber (manufacturer-CellVis) or multiwell plate using phenol red free DMEM about 24 h prior to treatment. Dye 9·4Cl was resuspended in deionized H2O before being diluted to their final concentrations in the cell culture media. Cells were treated with the dye for 24 h prior to imaging. Uptake assays were carried out at concentrations from 1-50 μM, including a vehicle control (untreated). For the cell growth assays, cells were treated with the dye for 24 h at a range of concentrations from 0.1-50 μM.
For the cell cytotoxicity experiments, MCF-7 cells were plated in a 96-well culture plate at a density of 0.01×10^6 cells per well in DMEM media with 10% FBS and 1% Penicillin-Streptomycin. Cells were cultured for 24 h before being treated with the dye at a range of concentrations from 0.1-50 μM. After treatment, cells were placed in a BioTek LionheartFX system, where they were imaged at 4× magnification every 3 h for 72 h under standard (37° C., 5% CO2) culture conditions. Phase contrast images were processed and analyzed with BioTek Gen5 analysis software to identify cell numbers at each time point during the culture period.

Data set [3] can be described thus: Transient absorption (fsTA/nsTA) and time-resolved fluorescence spectroscopy. Type of data set: physicochemical. Conditions: in H2O.
The nature of data set [4]: Absolute fluorescence quantum yield (integrating sphere). Format: physicochemical. To be noted: 414 nm excitation.

The structures appear in SMILES notation.

As to `COc1cc2c(OC)cc1-c1cc[n+](cc1)Cc1ccc(cc1)C[n+]1ccc(cc1)-c1cc(OC)c(cc1OC)-c1cc[n+](cc1)Cc1ccc(cc1)C[n+]1ccc-2cc1` [9·4Cl], in data set [1], the “Quantum Yield (ΦF)” value was found to be 0.15. Also, the cell growth entry in data set [2] (concentrations of 5 μM and above) is “decreases gradually”. For the same molecule, the cell death result in data set [2] (higher concentrations (range tested up to 50 μM)) is “minimal cell death is observed”. Also, in data set [2] (low concentrations (up to 1 μM)), the “growth of the cells versus non-treated control cells” value is on record as “comparable with that of non-treated control cells”. Moreover, the cytotoxicity entry in data set [2] (treatments of up to 10 μM, up to 64 h post-treatment) is “non-cytotoxic”. Besides, in data set [3], the CT state lifetime is 2.69±0.02 ns and the “rate constant k1 from TA data” value is on record as “(1.4 ± 0.3 ps)^−1 (ps)^−1”. Further, in data set [3] (kNR = kobs(1 − ΦF)), the “non-radiative decay rate constant kNR” value was “(3.16 ± 0.02 ns)^−1 (ns)^−1”. The “ΦF in the solid-state (powder)” value in data set [4] is reported as 0.016±0.005.
